Where only a bound is given, the exact number is not on record here.

The first test relates to IKKε-mediated phosphorylation of IRF3. Kind of test: ELISA for in-situ phosphorylation of IRF3 (phospho-Ser396) in HEK293T cells cotransfected with IRF3 and IKKε. Particulars: Homo sapiens, HEK-293T, 20 h, HEK293T cells, 20 hours; range given from about 1 μM to about 250 nM; read-out: IC50, in-situ IKKε-mediated phosphorylation of IRF3. Format: cell-based. As to the method:
HEK293T cells were cotransfected in a 10-cm dish with IRF3 and IKKε expression plasmids using Lipofectamine 2000 (Invitrogen, Carlsbad, Calif.). The following day, cells were replated at 20,000 per well in 96-well plates and treated with test compounds (compounds according to Formulae I and/or II) for 20 hours. Cell lysates were prepared and analyzed using an ELISA for phospho-Ser396 (anti-IRF3 capture antibody, Santa Cruz Biotechnology, Inc., Santa Cruz, Calif.; anti-p-Ser396 IRF3 detection antibody, Cell Signaling, Danvers, Mass.). pIRF3 levels in compound treated cells were normalized to DMSO treated cells (no compound). Cell viability was assayed in a parallel set of plates to monitor cytotoxic effects of the test compounds (CellTiter-Glo, Promega, Inc., Madison, Wis.). TBK1 activity was tested by Western blotting using a phospho-specific IRF7 antibody. Similar to above, HEK293T cells were transfected with IRF7 and TBK1 expression plasmids. Cells were seeded in 12-well plates at 150,000 per well and treated overnight with test compounds. Protein lysates were prepared and processed for Western blotting followed by detection using a phosphor-Ser477/Ser479 IRF7 antibody (BD Biosciences, San Jose, Calif.)
On the technique in general: An ELISA detects its analyte on a solid surface through an enzyme-linked reagent.
The term IC50 denotes the concentration at which inhibition is half-maximal. Take `COCCNCc1ccc(Nc2nccc(-c3ccc(OC4CCOCC4)c(C#N)c3)n2)cn1` [Example Compound 50, 5-{2-[(6-{[(2-Methoxyethyl)amino]methyl}pyridin-3-yl)amino]pyrimidin-4-yl}-2-(tetrahydro-2H-pyran-4-yloxy)benzonitrile]: the half-maximal inhibitory concentration (IC50) lay in the range of 250 to 1000 nM. Turning to `CN1CCN(c2ccc(Nc3nccc(-c4ccc(OC5CCOCC5)c(C#N)c4)n3)nn2)CC1` [Example Compound 85, 5-(2-{[6-(4-Methylpiperazin-1-yl)pyridazin-3-yl]amino}pyrimidin-4-yl)-2-(tetrahydro-2H-pyran-4-yloxy)benzonitrile], the 50% inhibitory concentration (IC50) fell in the range of 250 to 1000 nM. In the case of `COc1cc(-c2ccnc(Nc3ccc(CN4CCC4)nc3)n2)cc(C#N)c1OC1CCOCC1` [Example Compound 115, 5-(2-{[6-(Azetidin-1-ylmethyl)pyridin-3-yl]amino}pyrimidin-4-yl)-3-methoxy-2-(tetrahydro-2H-pyran-4-yloxy)benzonitrile], the IC50 lay within 250 to 1000 nM.

For `Cc1ccc(Nc2nccc(-c3ccc(O[C@@H]4CCN(C(=O)CO)C4)c(C#N)c3)n2)cn1` [Example Compound 118, 2-{[(3R)-1-(Hydroxyacetyl)pyrrolidin-3-yl]oxy}-5-{2-[(6-methylpyridin-3-yl)amino]pyrimidin-4-yl}benzonitrile], the 50% inhibitory concentration (IC50) was 250 to 1000 nM. In the case of `N#Cc1cc(-c2ccnc(Nc3ccnc(C(F)(F)F)c3)n2)ccc1O[C@@H]1CCN(C(=O)CO)C1` [Example Compound 122, 2-{[(3R)-1-(Hydroxyacetyl)pyrrolidin-3-yl]oxy}-5-(2-{[2-(trifluoromethyl)pyridin-4-yl]amino}pyrimidin-4-yl)benzonitrile], the IC50 is 250 to 1000 nM.

Still in this test, the particulars now being: Homo sapiens, HEK-293T, 20 h, HEK293T cells, 20 hours; read-out: IC50, in-situ IKKε-mediated phosphorylation of IRF3.
`N#Cc1cc(-c2ccnc(Nc3ccc(N4CCOCC4)nc3)n2)ccc1OC1CCOCC1` [Example Compound 6, 5-(2-{[6-(Morpholin-4-yl)pyridin-3-yl]amino}pyrimidin-4-yl)-2-(tetrahydro-2H-pyran-4-yloxy)benzonitrile]: the IC50 fell in the range of 100 to 250 nM. Same read-out and setting: for `COC1CN(C(=O)c2ccc(Nc3nccc(-c4ccc(OC5CCOCC5)c(C#N)c4)n3)cn2)C1` [Example Compound 31, 5-[2-({6-[(3-Methoxyazetidin-1-yl)carbonyl]pyridin-3-yl}amino)pyrimidin-4-yl]-2-(tetrahydro-2H-pyran-4-yloxy)benzonitrile] the value was 100 to 250 nM.

Regarding `Cc1nccn1-c1ccc(Nc2nccc(-c3ccc(OC4CCOCC4)c(C#N)c3)n2)cn1` [Example Compound 73, 5-(2-{[6-(2-Methyl-1H-imidazol-1-yl)pyridin-3-yl]amino}pyrimidin-4-yl)-2-(tetrahydro-2H-pyran-4-yloxy)benzonitrile], the IC50 is less than 100 nM.

For the compound `Cn1cc(Nc2nccc(-c3ccc(OC4CCOCC4)c(C#N)c3)n2)cn1` [Example Compound 97, 5-{2-[(1-Methyl-1H-pyrazol-4-yl)amino]pyrimidin-4-yl}-2-(tetrahydro-2H-pyran-4-yloxy)benzonitrile], the IC50 was 1000 to 5000 nM.

Turning to `CN1CCN(C(=O)c2ncc(Nc3nccc(-c4ccc(OC5CCOCC5)c(C#N)c4)n3)n2C)CC1` [Example Compound 103, 5-[2-({1-Methyl-2-[(4-methylpiperazin-1-yl)carbonyl]-1H-imidazol-5-yl}amino)pyrimidin-4-yl]-2-(tetrahydro-2H-pyran-4-yloxy)benzonitrile], the IC50 is less than 100 nM.

For the compound `COC1CN(C(=O)Cc2csc(Nc3nccc(-c4ccc(OC5CCOCC5)c(C#N)c4)n3)n2)C1` [Example Compound 105, 5-[2-({4-[2-(3-Methoxyazetidin-1-yl)-2-oxoethyl]-1,3-thiazol-2-yl}amino)pyrimidin-4-yl]-2-(tetrahydro-2H-pyran-4-yloxy)benzonitrile], the IC50 is 1000 to 5000 nM. On to `Cc1ccc(Nc2nccc(-c3ccc(OCC4CC4)c(C#N)c3)n2)cn1` [Example Compound 112, 2-(Cyclopropylmethoxy)-5-{2-[(6-methylpyridin-3-yl)amino]pyrimidin-4-yl}benzonitrile], for which the IC50 fell in the range of 100 to 250 nM. On the same count and under the same terms, the same measure for `COc1cc(-c2ccnc(Nc3ccc(CN4CC(OC)C4)nc3)n2)cc(C#N)c1OC1CCOCC1` [Example Compound 116, 3-Methoxy-5-[2-({6-[(3-methoxyazetidin-1-yl)methyl]pyridin-3-yl}amino)pyrimidin-4-yl]-2-(tetrahydro-2H-pyran-4-yloxy)benzonitrile]: 100 to 250 nM; for `CN(C)c1ccc(Nc2nccc(-c3ccc(O[C@@H]4CCN(C(=O)CO)C4)c(C#N)c3)n2)cn1` [Example Compound 124, 5-(2-{[6-(Dimethylamino)pyridin-3-yl]amino}pyrimidin-4-yl)-2-{[1-(hydroxyacetyl)pyrrolidin-3-yl]oxy}benzonitrile]: 100 to 250 nM; for `Cc1ccc(Nc2nccc(-c3ccc(OC4CCN(C(=O)[C@@H](C)O)CC4)c(C#N)c3)n2)cn1` [Example Compound 129, 2-({1-[(2R)-2-Hydroxypropanoyl]piperidin-4-yl}oxy)-5-{2-[(6-methylpyridin-3-yl)amino]pyrimidin-4-yl}benzonitrile]: 1000 to 5000 nM. `Cc1ccc(Nc2nccc(-c3ccc(NC(=O)C(C)C)c(C#N)c3)n2)cn1` [Example Compound 136, N-(2-Cyano-4-{2-[(6-methylpyridin-3-yl)amino]pyrimidin-4-yl}phenyl)-2-methylpropanamide]: the IC50 fell in the range of 1000 to 5000 nM.

A further test deals with T1, IKKε (Homo sapiens, UniProt Q14164).
T1 construct: His-tag (in-house Sf9 preparation) or GST-tag (purchased Invitrogen preparation); these are alternatives, not both on one protein; host or cells: Sf9 cells
T1 sequence (Q14164 1-716): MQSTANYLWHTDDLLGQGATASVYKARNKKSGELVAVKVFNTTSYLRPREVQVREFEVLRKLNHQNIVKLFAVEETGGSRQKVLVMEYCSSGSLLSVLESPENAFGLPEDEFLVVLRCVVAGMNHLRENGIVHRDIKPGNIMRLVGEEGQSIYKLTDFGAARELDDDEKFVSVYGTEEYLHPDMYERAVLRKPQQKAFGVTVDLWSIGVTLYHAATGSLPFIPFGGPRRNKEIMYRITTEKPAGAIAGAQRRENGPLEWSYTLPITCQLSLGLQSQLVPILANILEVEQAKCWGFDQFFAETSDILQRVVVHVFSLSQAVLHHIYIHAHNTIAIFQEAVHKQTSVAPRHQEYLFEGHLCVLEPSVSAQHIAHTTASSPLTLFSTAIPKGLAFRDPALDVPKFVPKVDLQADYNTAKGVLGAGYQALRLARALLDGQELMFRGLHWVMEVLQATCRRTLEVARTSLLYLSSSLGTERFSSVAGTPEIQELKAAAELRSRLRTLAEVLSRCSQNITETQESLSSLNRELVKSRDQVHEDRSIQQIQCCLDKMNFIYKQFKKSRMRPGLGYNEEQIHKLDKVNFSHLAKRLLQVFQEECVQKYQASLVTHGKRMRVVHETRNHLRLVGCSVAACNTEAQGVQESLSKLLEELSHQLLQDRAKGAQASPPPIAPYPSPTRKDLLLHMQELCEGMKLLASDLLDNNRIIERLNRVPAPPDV
The experiment in a line: In-vitro IKKε kinase assay (radiolabelled ATP, filterplate). The settings on record: "sensitized" assay; read-out: IC50, inhibition of the kinase activity of IKKε. In kind it is biochemical. As to the method:
IKKε enzyme was produced as a His-tag fusion in Sf9 cells or purchased as a GST-tag fusion (Invitrogen, Carlsbad, Calif.). TBK1 enzyme was produced as a His-tag fusion in Sf9 cells. Kinase reactions were carried out in reaction buffer using myelin basic protein (Millipore, Ballerica, Mass.), casein or dephosphorylated casein (Sigma, St. Louis, Mo.) as substrate at an ATP concentration equal to twice the Km,ATP value for each enzyme, corresponding to 32 μM ATP for IKKε and 60 μM ATP for TBK1. Radiolabelled [γ^33]ATP (PerkinElmer, Waltham, Mass.) in the amount of […] (IKKe, “normal”) or 0.7 μCi (IKKε, “sensitized”) or 1.25 μCi (TBK1) was added to each assay. Final enzyme concentrations were 0.1 or 0.015 μg/ml (IKKε) and 0.1 or 0.02 μg/ml (TBK1) for the “normal” and “sensitized” assay, respectively, and “sensitized” assays were conducted using only dephosphorylated casein as substrate. Test compounds (or DMSO solvent as a control) were added prior to initiation of the reactions. Reactions were terminated after 30-45 minutes by adding 3% phosphoric acid. Terminated reactions were transferred to P-81 cellulose phosphate filterplates (Whatman, Inc., Piscataway, N.J.) and washed with 1% phosphoric acid on a vacuum apparatus. After air drying, scintillant (PerkinElmer, Waltham, Mass.) was added and the plates were read on a PerkinElmer TopCount NXT instrument. Counts were normalized to DMSO controls after background subtraction.
For the compound `COc1cc(Nc2nccc(-c3ccc(OC4CCN(C(=O)CO)CC4)c(C#N)c3)n2)ccn1` [Example Compound 222, 2-{[1-(Hydroxyacetyl)piperidin-4-yl]oxy}-5-{2-[(2-methoxypyridin-4-yl)amino]pyrimidin-4-yl}benzonitrile], the half-inhibitory concentration (IC50) was less than 5 nM. Take `Cc1cc(Nc2nccc(-c3ccc(O[C@@H]4CCN(C(=O)CO)C4)c(C#N)c3)n2)ccn1` [Example Compound 223, 2-{[(3R)-1-(Hydroxyacetyl)pyrrolidin-3-yl]oxy}-5-{2-[(2-methylpyridin-4-yl)amino]pyrimidin-4-yl}benzonitrile]: the IC50 is less than 5 nM. Take `N#Cc1cc(-c2ccnc(Nc3ccnc(N4CC(O)C4)c3)n2)ccc1OCC1CC1` [Example Compound 241, 2-(Cyclopropylmethoxy)-5-(2-{[2-(3-hydroxyazetidin-1-yl)pyridin-4-yl]amino}pyrimidin-4-yl)benzonitrile]: the concentration for half-maximal inhibition (IC50) is less than 5 nM. As to `COCCNc1cc(Nc2nccc(-c3ccc(OCC4CC4)c(C#N)c3)n2)ccn1` [Example Compound 245, 2-(Cyclopropylmethoxy)-5-[2-({2-[(2-methoxyethyl)amino]pyridin-4-yl}amino)pyrimidin-4-yl]benzonitrile], the IC50 is less than 5 nM. Still for that read-out and setting: the same measure for `COC1CN(c2cc(Nc3nccc(-c4ccc(OCC5CC5)c(C#N)c4)n3)ccn2)C1` [Example Compound 248, 2-(Cyclopropylmethoxy)-5-(2-{[2-(3-methoxyazetidin-1-yl)pyridin-4-yl]amino}pyrimidin-4-yl)benzonitrile]: less than 5 nM.
